From the supplement of paper PMC10307832

How the values were obtained:
Experiment in all cases: relative viability (nuclei count vs DMSO), 5 days (fraction); higher = more cells survive
[1] = compound: CN1CCN(CC1)C2=CC(=C(C=C2)NC3=NC=C4C(=N3)N(C5=CC=CC=C5C(=O)N4C)C)OC [XMD8-85] + CC(=O)c1c(C)c2cnc(Nc3ccc(N4CCNCC4)cn3)nc2n(C2CCCC2)c1=O [Palbociclib] (partner 0.5 µM)
Procedure, shortened: (§1)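 After 5 days of treatment, lung cancer cells in 1536-well plates were fixed and stained in a single step (final 0.05% Triton X-100, 1% formaldehyde, 1 ug/ml Hoechst) and their nuclei counted on 4× images. Treatment had been applied by pin tool the day after seeding as one drug alone or as a fixed anchor-drug dose with five library-drug doses (not always all listed) in √10 steps. Relative viability is the nuclei count of treated wells divided by that of vehicle wells, and values are medians of duplicate plates.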

[2] = compound: CN1CCN(CC1)C2=CC(=C(C=C2)NC3=NC=C4C(=N3)N(C5=CC=CC=C5C(=O)N4C)C)OC [XMD8-85] + CCNC(=O)c1noc(-c2cc(C(C)C)c(O)cc2O)c1-c1ccc(CN2CCOCC2)cc1 [Luminespib] (partner 0.01 µM)
Procedure, shortened: as §1

[3] = compound: CN1CCN(CC1)C2=CC(=C(C=C2)NC3=NC=C4C(=N3)N(C5=CC=CC=C5C(=O)N4C)C)OC [XMD8-85] + NC(=O)Nc1cc(-c2cccc(F)c2)sc1C(=O)N[C@H]1CCCNC1 [AZD7762] (partner 0.2 µM)
Procedure, shortened: as §1

[4] = compound: O=C(O)C(Cc1ccccc1[N+](=O)[O-])=NNc1nc(-c2ccc(Cl)c(Cl)c2)cs1 (mixture of isomers) [4EGI-1] + CC(=O)c1c(C)c2cnc(Nc3ccc(N4CCNCC4)cn3)nc2n(C2CCCC2)c1=O [Palbociclib] (partner 0.5 µM)
Procedure, shortened: as §1

Cell Line	relative viability ([1]; first compound 0.08 µM)	relative viability ([1]; first compound 0.253 µM)	relative viability ([1]; first compound 0.8 µM)	relative viability ([1]; first compound 2.53 µM)	relative viability ([1]; first compound 8 µM)	relative viability ([2]; first compound 0.08 µM)	relative viability ([2]; first compound 0.253 µM)	relative viability ([2]; first compound 0.8 µM)	relative viability ([2]; first compound 2.53 µM)	relative viability ([2]; first compound 8 µM)	relative viability ([3]; first compound 0.08 µM)	relative viability ([3]; first compound 0.253 µM)	relative viability ([3]; first compound 0.8 µM)	relative viability ([3]; first compound 2.53 µM)	relative viability ([3]; first compound 8 µM)	relative viability ([4]; first compound 0.5 µM)	relative viability ([4]; first compound 1.581 µM)	relative viability ([4]; first compound 5 µM)	relative viability ([4]; first compound 15.81 µM)	relative viability ([4]; first compound 50 µM)
LC-2-ad	0.482	0.452	0.51	0.49	0.39	1.26	0.996	1.22	0.874	0.706	0.808	0.837	0.895	0.779	0.596	0.49	0.514	0.469	0.417	0.305
LCLC-97TM1	0.192	0.188	0.188	0.204	0.239	0.715	0.87	0.833	0.813	0.85	0.207	0.171	0.304	0.286	0.293	0.224		0.227	0.177	0.123
SW 900	0.553	0.535	0.594	0.496	0.324	0.164	0.195	0.175	0.165	0.152	0.555	0.669	0.589	0.626	0.304	0.552	0.573	0.69	0.395	0.234
NCI-H460	0.129	0.221	0.139	0.223	0.0809	0.0362	0.0282	0.0359	0.0262	0.0291	0.624	0.643	0.69	0.659	0.432	0.169	0.05	0.245	0.141	0.0263
UMC-11	0.359	0.336	0.347	0.308	0.318	0.972	1.01	1.08	0.941	0.671						0.345	0.34	0.378	0.365	0.305
HCC-827	0.505	0.472	0.424	0.505	0.467	0.834	0.486	0.756	0.797	0.614	0.23	0.185	0.231	0.263	0.206	0.521	0.403	0.565		0.5
201T	0.342	0.321	0.36	0.34	0.325	1.06	1.1	1.02	1.03	0.936	0.566	0.651	0.669	0.698	0.575	0.365	0.358	0.364	0.316	0.31
NCI-H1755	0.47	0.445	0.432	0.449	0.393	0.672	0.414	0.344	0.482	0.342	0.542	0.663	0.382	0.519	0.512	0.439	0.424	0.425	0.435	0.406
